Measurements from US9670212B2, “Inhibitors of PI3K-delta and methods of their use and manufacture” (Exelixis, Inc., priority 2010, dated 2017).

Biological target: PI3K delta (Homo sapiens (Human), UniProt O00329)
Assay: Luciferase-coupled chemiluminescence kinase assay (KinaseGlo, ATP consumption)
Format: biochemical
Summary of the method: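 Kinase, compound and ATP (at or below KM) reacted 2 h at ambient temperature; remaining ATP detected by KinaseGlo luciferase chemiluminescence as percent ATP consumed. 10-point dose-response, curves fitted to give IC50.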

Chain of PI3K delta (O00329 whole entry): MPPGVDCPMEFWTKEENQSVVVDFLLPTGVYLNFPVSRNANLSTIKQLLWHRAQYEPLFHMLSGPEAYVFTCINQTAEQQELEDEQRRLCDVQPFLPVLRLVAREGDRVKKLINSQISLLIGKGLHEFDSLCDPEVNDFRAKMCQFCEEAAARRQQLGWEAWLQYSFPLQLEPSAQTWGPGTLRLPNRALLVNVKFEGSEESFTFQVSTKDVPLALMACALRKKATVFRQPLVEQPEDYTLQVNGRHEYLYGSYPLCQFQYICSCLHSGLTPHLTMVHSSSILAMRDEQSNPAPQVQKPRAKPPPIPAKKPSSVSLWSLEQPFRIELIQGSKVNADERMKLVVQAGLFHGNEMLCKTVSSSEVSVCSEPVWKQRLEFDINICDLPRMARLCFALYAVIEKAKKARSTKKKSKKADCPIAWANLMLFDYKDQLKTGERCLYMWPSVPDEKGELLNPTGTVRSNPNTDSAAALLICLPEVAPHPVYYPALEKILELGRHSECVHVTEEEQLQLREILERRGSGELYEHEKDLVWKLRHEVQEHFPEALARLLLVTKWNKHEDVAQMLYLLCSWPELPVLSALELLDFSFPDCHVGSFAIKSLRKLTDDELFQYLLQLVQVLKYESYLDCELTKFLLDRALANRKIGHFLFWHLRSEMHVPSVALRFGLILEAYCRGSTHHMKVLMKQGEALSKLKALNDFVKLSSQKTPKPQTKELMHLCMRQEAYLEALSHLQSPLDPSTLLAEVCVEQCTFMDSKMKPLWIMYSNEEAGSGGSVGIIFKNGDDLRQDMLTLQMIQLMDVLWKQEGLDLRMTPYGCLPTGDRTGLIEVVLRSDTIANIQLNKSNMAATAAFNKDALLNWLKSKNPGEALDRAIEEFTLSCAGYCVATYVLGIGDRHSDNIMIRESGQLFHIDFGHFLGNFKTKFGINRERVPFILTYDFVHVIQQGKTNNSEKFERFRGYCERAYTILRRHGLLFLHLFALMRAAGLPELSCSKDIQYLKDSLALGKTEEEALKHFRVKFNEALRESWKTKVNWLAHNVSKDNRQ
Chain of PI3K delta (P27986 whole entry partner): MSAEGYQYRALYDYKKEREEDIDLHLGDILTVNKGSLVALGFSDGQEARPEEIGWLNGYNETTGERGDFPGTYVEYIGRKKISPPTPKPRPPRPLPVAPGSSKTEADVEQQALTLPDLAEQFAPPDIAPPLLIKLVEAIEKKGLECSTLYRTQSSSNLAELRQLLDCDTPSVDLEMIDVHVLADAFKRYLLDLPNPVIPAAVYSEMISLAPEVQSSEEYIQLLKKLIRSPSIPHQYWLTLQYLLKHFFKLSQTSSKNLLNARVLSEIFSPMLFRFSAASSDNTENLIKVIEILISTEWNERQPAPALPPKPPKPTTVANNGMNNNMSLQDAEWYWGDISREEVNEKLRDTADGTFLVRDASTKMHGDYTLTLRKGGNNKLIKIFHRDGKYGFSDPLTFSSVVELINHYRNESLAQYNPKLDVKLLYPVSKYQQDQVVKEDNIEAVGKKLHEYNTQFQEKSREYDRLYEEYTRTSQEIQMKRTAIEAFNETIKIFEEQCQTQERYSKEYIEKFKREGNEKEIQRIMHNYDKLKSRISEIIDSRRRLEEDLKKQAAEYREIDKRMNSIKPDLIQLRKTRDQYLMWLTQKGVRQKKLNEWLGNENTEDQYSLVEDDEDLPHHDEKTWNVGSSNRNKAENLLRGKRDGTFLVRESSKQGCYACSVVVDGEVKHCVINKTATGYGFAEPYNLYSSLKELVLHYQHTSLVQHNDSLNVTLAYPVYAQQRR

IC50 [nM] | SMILES
500 to 1500 | Cc1cccc2cc(CNC(=O)c3nccnc3N)c(N3CCCN(Cc4ccncc4)CC3)nc12 [Compound 65, 3-amino-N-({8-methyl-2-[4-(pyridin-4-ylmethyl)-1,4-diazepan-1-yl]quinolin-3-yl}methyl)pyrazine-2-carboxamide]
50 to 250 | Cc1cccc2cc(CNC(=O)c3nccnc3N)c(N(C)Cc3cccnc3)nc12 [Compound 87, 3-amino-N-({8-methyl-2-[methyl(pyridin-3-ylmethyl)amino]quinolin-3-yl}methyl)pyrazine-2-carboxamide]
50 to 250 | Cc1cccc2cc(CNC(=O)c3nccnc3N)c(N(C)CCN(C)C(=O)CN(C)C)nc12 [Compound 114, 3-amino-N-({2-[{2-[(N,N-dimethylglycyl)(methyl)amino]ethyl}(methyl)amino]-8-methylquinolin-3-yl}methyl)pyrazine-2-carboxamide]
500 to 1500 | Cc1cccc2cc(CNC(=O)c3nccnc3N)c(N3CCNCC3)nc12 [Compound 131, 3-amino-N-[(8-methyl-2-piperazin-1-ylquinolin-3-yl)methyl]pyrazine-2-carboxamide]
500 to 1500 | Cc1cccc2cc(CNC(=O)c3nccnc3N)c(N(C)CCc3ccccn3)nc12 [Compound 88, 3-amino-N-({8-methyl-2-[methyl(2-pyridin-2-ylethyl)amino]quinolin-3-yl}methyl)pyrazine-2-carboxamide]
500 to 1500 | Cc1cccc2cc(CNC(=O)c3nccnc3N)c(N(C)CCN(C)c3cnccn3)nc12 [Compound 90, 3-amino-N-{[8-methyl-2-(methyl{2-[methyl(pyrazin-2-yl)amino]ethyl}amino)quinolin-3-yl]methyl}pyrazine-2-carboxamide]
< 50 | Cc1cccc2cc(CNC(=O)c3nccnc3N)c(N(C)CCN(C)CC(=O)N(C)C)nc12 [Compound 89, 3-amino-N-({2-[(2-{[2-(dimethylamino)-2-oxoethyl](methyl)amino}ethyl)(methyl)amino]-8-methylquinolin-3-yl}methyl)pyrazine-2-carboxamide]
500 to 1500 | Cc1cccc2cc(CNC(=O)c3nccnc3N)c(N(C)CCN(C)C(=O)c3cnccn3)nc12 [Compound 78, 3-amino-N-{[8-methyl-2-(methyl{2-[methyl(pyrazin-2-ylcarbonyl)amino]ethyl}amino)quinolin-3-yl]methyl}pyrazine-2-carboxamide]
500 to 1500 | CNCCOc1nc2c(C)cccc2cc1CNC(=O)c1nccnc1N [Compound 122, 3-amino-N-[(8-methyl-2-{[2-(methylamino)ethyl]oxy}quinolin-3-yl)methyl]pyrazine-2-carboxamide]
250 to 500 | Cc1ccccc1-c1cc2c(C)cccc2nc1CNC(=O)c1nccnc1N [Compound 118, 3-amino-N-{[5-methyl-3-(2-methylphenyl)quinolin-2-yl]methyl}pyrazine-2-carboxamide]
500 to 1500 | Cc1cccc2cc(CNC(=O)c3nccnc3N)c(N(Cc3ccccn3)Cc3ccccn3)nc12 [Compound 47, 3-amino-N-({2-[bis(pyridin-2-ylmethyl)amino]-8-methylquinolin-3-yl}methyl)pyrazine-2-carboxamide]

More lines, now with the values behind:

SMILES | IC50 [nM]
Cc1ccccc1-c1nc2c(C)cccc2cc1Cn1nc(I)c2c(N)ncnc21 [Compound 134, 3-iodo-1-{[8-methyl-2-(2-methylphenyl)quinolin-3-yl]methyl}-1H-pyrazolo[3,4-d]pyrimidin-4-amine] | < 50
Cc1cccc2cc(C(C)Nc3ncnc4[nH]cnc34)c(-c3ccccc3Cl)nc12 (stereo not drawn) [Compound 152, N-{1-[2-(2-chlorophenyl)-8-methylquinolin-3-yl]ethyl}-9H-purin-6-amine] | < 50
Cc1ccccc1-c1cc2ccccc2nc1CNc1cncnc1N [Compound 132, N-5-{[3-(2-methylphenyl)quinolin-2-yl]methyl}pyrimidin-4,5-diamine] | 500 to 1500
Cc1ccccc1-c1cc2ccccc2nc1CNC(=O)c1cnc(N)nc1 [Compound 74, 2-amino-N-{[3-(2-methylphenyl)quinolin-2-yl]methyl}pyrimidine-5-carboxamide] | 500 to 1500
CNCCN(C)c1nc2c(C)cccc2cc1CNC(=O)C1(C(=O)NC)CC1 [Compound 40, N-methyl-N′-[(8-methyl-2-{methyl[2-(methylamino)ethyl]amino}quinolin-3-yl)methyl]cyclopropane-1,1-dicarboxamide] | 500 to 1500
Cc1cccc2cc(CNC(=O)c3nccnc3N)c(N3CCCN(Cc4cncn4C)CC3)nc12 [Compound 63, 3-amino-N-[(8-methyl-2-{4-[(1-methyl-1H-imidazol-5-yl)methyl]-1,4-diazepan-1-yl}quinolin-3-yl)methyl]pyrazine-2-carboxamide] | 50 to 250
Cc1cccc2cc(Cn3cnc4c(N)ncnc43)c(N(C)CC3CCCN3C)nc12 (stereo not drawn) [Compound 2, 3-[(6-amino-9H-purin-9-yl)methyl]-N,8-dimethyl-N-[(1-methylpyrrolidin-2-yl)methyl]quinolin-2-amine] | < 50
CCCCN(C)c1nc2c(C)cccc2cc1CNc1ncnc2[nH]cnc12 [Compound 26, N-butyl-N,8-dimethyl-3-[(9H-purin-6-ylamino)methyl]quinolin-2-amine] | 50 to 250
Cc1ccccc1-n1c(CNC(=O)c2ncccc2N)nc2cccc(C)c2c1=O [Compound 161, 3-amino-N-{[5-methyl-3-(2-methylphenyl)-4-oxo-3,4-dihydroquinazolin-2-yl]methyl}pyridine-2-carboxamide] | 500 to 1500
Cc1ccccc1-c1c(Cn2cnc3ncnc(N)c32)nc2ccccc2c1C [Compound 169, 7-{[4-methyl-3-(2-methylphenyl)quinolin-2-yl]methyl}-7H-purin-6-amine] | 500 to 1500
